Experiment: Inhibition of eIF4A1 in human HAP1 cells assessed as reduction in cell proliferation incubated for 72 hrs by CellTiter-Glo reagent based assay

## COc1cc2c(c(OC)n1)[C@]1(O)[C@H](O)[C@H](CN(C)C)[C@@H](c3ccccc3)[C@]1(c1ccc(C#N)cc1)O2 [Zotatifin]
  IC50: 6.3 nM

From BindingDB's records for doi:10.1021/acs.jmedchem.0c00182 (Inception Therapeutics, 2020)
